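Growth conditions: 96-well plates. Treatment: test compound, 48 hours, 5 concentrations. Analysis: linear interpolation between bracketing concentrations; unreached endpoints set to highest concentration. GI50 = concentration required for 50% inhibition of growth.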 Active and inactive are the calls of the source. No stated cut-off is given here; in the data, active = GI50 up to about 1.1 µM and inactive = higher.
Columns and labels:
Assay in all cases: growth of human tumour cells (NCI), 48 h
[1] = test system: A549
[2] = test system: ACHN
[3] = test system: CAKI-1
[4] = test system: HCC 2998
[5] = test system: HCT-15
[6] = test system: MDA-MB-231
[7] = test system: MOLT-4
[8] = test system: NCI-H226
[9] = test system: NCI-H522
[10] = test system: OVCAR-3
[11] = test system: SF-295
[12] = test system: SK-MEL-28
[13] = test system: SK-MEL-2
[14] = test system: SN12C
[15] = test system: T47D
[16] = test system: TK-10
[17] = test system: UACC-257
[18] = test system: UACC-62
[19] = test system: UO-31

SMILES | GI50 [1] | GI50 [2] | GI50 [3] | GI50 [4] | GI50 [5] [µM] | GI50 [6] | GI50 [7] | GI50 [8] | GI50 [9] | GI50 [10] | GI50 [11] | GI50 [12] | GI50 [13] | GI50 [14] | GI50 [15] | GI50 [16] | GI50 [17] | GI50 [18] | GI50 [19]
CC(C)(CN1CCCCC1)C(/C=C/c1ccc(Cl)cc1)=N\NC(=O)N/N=C(/C=C/c1ccc(Cl)cc1)C(C)(C)CN1CCCCC1 | 7.28 µM (inactive) | 3.82 µM (inactive) | 2.39 µM (inactive) | 5.51 µM (inactive) | 2.47 | 2.65 µM (inactive) | 3.11 µM (inactive) | 4.58 µM (inactive) | 2.41 µM (inactive) | 3.21 µM (inactive) | 10 µM (inactive) | 9.77 µM (inactive) | 8.69 µM (inactive) | 3.85 µM (inactive) | 3.44 µM (inactive) | 10.5 µM (inactive) | 5.05 µM (inactive) | 3.53 µM (inactive) | 3.49 µM (inactive)
C[Si](C)(C)C#CCO[Si](C)(C)C | > 100 µM (inactive) | > 100 µM (inactive) | > 78.7 µM (inactive) | > 100 µM (inactive) | > 79.8 | > 50.2 µM (inactive) | 22.3 µM (inactive) | > 100 µM (inactive) | 15.9 µM (inactive) | > 94.2 µM (inactive) | > 100 µM (inactive) | > 75.3 µM (inactive) | > 54.2 µM (inactive) | > 100 µM (inactive) | > 70.6 µM (inactive) | > 100 µM (inactive) | > 100 µM (inactive) | 56.5 µM (inactive) | > 100 µM (inactive)
O=C(C=P(c1ccccc1)(c1ccccc1)c1ccccc1)c1ccc(-c2cccs2)cc1 | 3.17 µM (inactive) | 3.73 µM (inactive) | 4.91 µM (inactive) | 2.83 µM (inactive) | 6.61 | 9.79 µM (inactive) | 2.15 µM (inactive) | 2.86 µM (inactive) | 3.35 µM (inactive) | 2.9 µM (inactive) | 4.17 µM (inactive) | 3.41 µM (inactive) | 1.39 µM (inactive) | 4.98 µM (inactive) | 2.33 µM (inactive) | 3.08 µM (inactive) | 1.8 µM (inactive) | 1.64 µM (inactive) | 3.48 µM (inactive)
OC(c1ccsc1)c1cc2ccccc2s1 (configuration not stated) | > 10 µM (inactive) | > 10 µM (inactive) | > 10 µM (inactive) | > 10 µM (inactive) | > 10 | > 10 µM (inactive) | > 10 µM (inactive) | > 10 µM (inactive) | > 10 µM (inactive) | > 10 µM (inactive) | > 10 µM (inactive) | > 10 µM (inactive) | > 10 µM (inactive) | > 10 µM (inactive) | > 10 µM (inactive) | > 10 µM (inactive) | > 10 µM (inactive) | > 10 µM (inactive) | > 10 µM (inactive)
CCOC(=O)CCC(NC(=O)c1ccc(Oc2nc3ccc(C(F)(F)F)cc3nc2-c2ccccc2)cc1)C(=O)OCC (configuration not stated) | 24.2 µM (inactive) | 5.61 µM (inactive) | 7.19 µM (inactive) | > 100 µM (inactive) | > 100 | 8.13 µM (inactive) | > 100 µM (inactive) | 4.32 µM (inactive) | 9.57 µM (inactive) | 30.8 µM (inactive) | 12.2 µM (inactive) | > 100 µM (inactive) | 22.8 µM (inactive) | > 50.7 µM (inactive) | > 42.2 µM (inactive) | 15.1 µM (inactive) | > 64.7 µM (inactive) | 23.1 µM (inactive) | 20.6 µM (inactive)
O=C1O[C@]2(c3ccccc3)C(c3ccccc3)=C[C@]2(C(=O)c2ccccc2)C1=O | 37.2 µM (inactive) | 35.2 µM (inactive) | 36.9 µM (inactive) | 20.3 µM (inactive) | 29.5 | 32.3 µM (inactive) | 4.02 µM (inactive) | 29.9 µM (inactive) | 21.1 µM (inactive) | 32.6 µM (inactive) | 47 µM (inactive) | 35.6 µM (inactive) | 27.2 µM (inactive) | 33.4 µM (inactive) | 1.12 µM (inactive) | 27 µM (inactive) | 30.3 µM (inactive) | 29.8 µM (inactive) | 27.9 µM (inactive)
Nc1nc(Cl)cc(NCC2(O)CC2)n1 | > 100 µM (inactive) | > 100 µM (inactive) | > 100 µM (inactive) | > 100 µM (inactive) | > 100 | > 100 µM (inactive) | > 100 µM (inactive) | > 100 µM (inactive) | > 100 µM (inactive) | > 100 µM (inactive) | > 100 µM (inactive) | > 100 µM (inactive) | > 100 µM (inactive) | > 100 µM (inactive) | > 100 µM (inactive) | > 100 µM (inactive) | > 100 µM (inactive) | > 100 µM (inactive) | > 100 µM (inactive)
OC(Cc1cc(CC(O)(C(F)(F)F)C(F)(F)F)nc(CC(O)(C(F)(F)F)C(F)(F)F)c1)(C(F)(F)F)C(F)(F)F | 1.4 µM (inactive) | 0.681 µM (active) | 0.321 µM (active) | 1.83 µM (inactive) | 0.767 | 1.92 µM (inactive) | 3.85 µM (inactive) | 2.75 µM (inactive) | 3.06 µM (inactive) | 0.49 µM (active) | 0.509 µM (active) | 1.98 µM (inactive) | 2.02 µM (inactive) | 2.2 µM (inactive) | 0.755 µM (active) | 3.99 µM (inactive) | 2.05 µM (inactive) | 0.337 µM (active) | 
COC(=O)N1CC(=O)C(C(=O)NC23CC4CC(CC(C4)C2)C3)C1 (configuration not stated) | > 100 µM (inactive) | 74.3 µM (inactive) | > 100 µM (inactive) | 37 µM (inactive) | 39.2 | 42.7 µM (inactive) | 35.8 µM (inactive) | > 100 µM (inactive) | 49.3 µM (inactive) | > 100 µM (inactive) | 56.6 µM (inactive) | 66.4 µM (inactive) | 77.3 µM (inactive) |  | 47.8 µM (inactive) | > 100 µM (inactive) | > 100 µM (inactive) | 69.7 µM (inactive) | > 100 µM (inactive)
COc1nc(C)nc2sc3c(c12)CCCC3 |  | > 100 µM (inactive) | > 100 µM (inactive) | > 100 µM (inactive) | > 100 | > 100 µM (inactive) | > 100 µM (inactive) | > 100 µM (inactive) | > 100 µM (inactive) | > 100 µM (inactive) | > 100 µM (inactive) | > 100 µM (inactive) | > 100 µM (inactive) | > 100 µM (inactive) | > 100 µM (inactive) | > 100 µM (inactive) | > 100 µM (inactive) | > 100 µM (inactive) | 89.9 µM (inactive)
C=CCOC(=O)CC[N+]1=CCC(c2ccccc2)(c2ccccc2)O1 | > 100 µM (inactive) | > 100 µM (inactive) | > 100 µM (inactive) | > 100 µM (inactive) | > 100 | > 100 µM (inactive) | > 100 µM (inactive) | > 100 µM (inactive) | > 100 µM (inactive) | > 100 µM (inactive) | > 100 µM (inactive) | > 100 µM (inactive) | > 100 µM (inactive) | > 100 µM (inactive) | > 100 µM (inactive) | > 100 µM (inactive) | > 100 µM (inactive) | > 100 µM (inactive) | > 100 µM (inactive)
NCCCCNC1(c2cc3ccccc3s2)CCCCC1 | 5.96 µM (inactive) | 11.1 µM (inactive) | 14.8 µM (inactive) | 1.65 µM (inactive) | 4.54 | 3.22 µM (inactive) | 2.07 µM (inactive) | 16.5 µM (inactive) | 2.42 µM (inactive) | 2.78 µM (inactive) | 2.84 µM (inactive) | 1.83 µM (inactive) | 1.88 µM (inactive) | 12.2 µM (inactive) | 2.29 µM (inactive) | 3.87 µM (inactive) | 1.84 µM (inactive) | 1.91 µM (inactive) | 2.56 µM (inactive)
CCc1nc(N)nc(N)c1-c1ccc(N2CCNCC2)cc1 | 54.3 µM (inactive) | 51.3 µM (inactive) | > 97.3 µM (inactive) | 42.8 µM (inactive) | 54.5 | > 93.3 µM (inactive) | 41 µM (inactive) | > 100 µM (inactive) | 55.1 µM (inactive) | > 83.8 µM (inactive) | 79.6 µM (inactive) | > 78.5 µM (inactive) | > 100 µM (inactive) | 87.7 µM (inactive) | 57.7 µM (inactive) | > 100 µM (inactive) | 33.2 µM (inactive) | 69 µM (inactive) | > 100 µM (inactive)
Cc1[nH]n(-c2nc3c(c(=O)[nH]2)CCC3)c(=O)c1CCO | > 100 µM (inactive) | > 100 µM (inactive) | > 100 µM (inactive) | > 100 µM (inactive) | > 100 | > 100 µM (inactive) | > 100 µM (inactive) | > 100 µM (inactive) | > 100 µM (inactive) | > 100 µM (inactive) | > 100 µM (inactive) | > 100 µM (inactive) | > 100 µM (inactive) | > 100 µM (inactive) | > 100 µM (inactive) | > 100 µM (inactive) | > 100 µM (inactive) | > 100 µM (inactive) | > 100 µM (inactive)
CC1(C)O[C@@H]2COC(=O)[C@@H]2O1 | > 100 µM (inactive) | > 100 µM (inactive) | > 100 µM (inactive) | > 100 µM (inactive) | > 100 | > 100 µM (inactive) | > 100 µM (inactive) | > 100 µM (inactive) | > 100 µM (inactive) | > 100 µM (inactive) | > 100 µM (inactive) | > 100 µM (inactive) | > 100 µM (inactive) | > 100 µM (inactive) | > 100 µM (inactive) | > 100 µM (inactive) | > 100 µM (inactive) | > 100 µM (inactive) | > 100 µM (inactive)

Reference: ChEMBL document CHEMBL1201862, “PubChem BioAssay data set” (2004)
